Reference: patent publication US20130189690A1, “SCN5A Splice Variants for Use in Methods Relating to Sudden Cardiac Death and Need for Implanted Cardiac Defibrillators” (The United States Government as represented by the …, priority 2011, published 2013)

Columns and labels:
[1] = system: NF-κB subunits p50 and p65 on the scn5a promoter; test: Chromatin immunoprecipitation (ChIP) assay in H9c2 cells; assay type: cell-based, rat
Protocol: Formaldehyde cross-linking and chromatin immunoprecipitation was performed as described in manufactory's manual (ChIP-IT™ kit, Activemotif). Briefly, proteins were crosslinked with chromatin using 1% formaldehyde in H9c2 cells with or without treatment. The cells were subsequently sonicated in lysis buffer, and an aliquot of the lysate was used in a PCR reaction. The remaining lysate was cleared with protein G beads. One half of the cleared lysate was incubated with p50 or p65 antibody, while the other half was used as a negative control without the antibody. After reversing the cross-linking, the immuno-complex was digested with proteinase K, and the DNA was purified. DNA was analyzed by PCR with the PicoMax Polymerase (Stratagene, La Jolla, Calif.) and primers specific to the APS3 promoter region.

[2] = system: NF-κB binding to the scn5a promoter; test: Electrophoretic mobility shift assay with H9c2 nuclear extracts; assay type: cell-based, rat; conditions: for effect of NF-κB inhibitor on NF-κB binding to scn5a promoter probe: CAPE 10 μM, H9c2, H2O2
Description: Approximately 5×10^6 cells were scraped for nuclear protein extraction by nuclear extract kit (Activemotif, Carlsbad, Calif.). A double-stranded oligonucleotide containing the consensus-binding sequence (bold) for […] ID NO. 657)) and NF-κB mutant sequence ([NT] ID NO. 658)) from scn5a promoter were used as probes to assay for binding activity of the nuclear extracts. Protein-DNA complexes were detected using biotin end-labeled double-stranded DNA probes prepared by annealing complementary oligonucleotides. Oligonucleotides were labeled in a reaction using terminal deoxynucleotide transferase and biotin-N4-CTP (Pierce, Rockford, Ill.) following the biotin 3' end DNA labeling kit manual. The binding reaction was performed using the LightShift kit (Pierce). […] Following electrophoresis, the DNA-protein complexes were transferred onto nylon membranes and detected using chemiluminescence. TNF-α activated H9c2 cell nuclear extract (5 μg) was used as positive control. The reaction products were separated on a 6% retardation gel.

scn5a promoter = test: scn5a promoter-reporter (dual luciferase) assay in H9c2 cells; assay type: cell-based, rat
Protocol: The scn5a promoter region has previously been defined (Shang, L. L. & Dudley, S. C., Jr. (2005) J. Biol. Chem. 280, 933-940). For these experiments, a new promoter construct that contained the NF-κB consensus binding site was used to test the effect of treatments on scn5a transcription. This construct, pGL3-APS3, consisted of a 937 bp fragment starting from exon 1C to +32 base pairs relative to the start codon located on exon 2 of mouse scn5a gene.
H9c2 cardiomyocytes were plated in each well of 24-well plates at a density of 2.5×10^4 cells in a final volume of 1 mL of culture medium, allowed to attach overnight, and expand to 70%-80% confluence. Transfection of 0.3 μg of the promoter-reporter construct and 0.013 μg of a plasmid containing the herpes simplex virus thymidine kinase (HSV-TK) promoter driving expression of a synthetic Renilla luciferase (phRL-TK; Promega, Madison, […].) was carried out with 0.9 μL of Fugene6 chemical transfection reagents (Roche, Indianapolis, Ind.) following the manufacturer's instructions. […] Light emission was quantified in a Veritas microplate luminometer using Veritas-version 1.4.0 software (Tuener Biosystems, Sunnyvale, Calif.). […] Four separate transfection sessions were analyzed, and at each session, transfections were performed in triplicate. Three dual luciferase readings were taken for each transfection experiment. […]

H9c2 cardiomyocytes = test: Trypan-blue exclusion cell viability assay; assay type: cell-based
Protocol: To determine appropriate concentrations of these agents in future experiments, rat H9c2 cardiomyocytes were treated with escalating concentrations of AngII and H2O2, and the dose-dependent cell viability was determined. H9c2 cardiomyocytes were tolerant of a wide range of AngII concentrations from 1-500 nM in serum free medium (FIG. 14A). On the other hand, higher doses of H2O2 induced cell death starting at concentrations of 50 μM (FIG. 14B). […] Exposures of 48 h were used to allow sufficient time for transcriptional effects on the Na^+ current.
The rat embryonic cardiomyocyte cell line, H9c2 (ATCC cat #CRL-1446), or acutely isolated neonatal rat heart cardiomyocytes were used. Rat neonatal ventricular cells were isolated from 3-day-old Sprague-Dawley rats (Charles River Laboratories Wilmington, Mass.) using a kit and following the manufacturer's instructions (Worthington Biochemical Corp. Lakewood, N.J.). Cells cultured in Dulbecco's modified Eagle's medium (DMEM; ATCC, Manassas, Va.) with 10% fetal calf serum (ATCC) under standard tissue culture conditions at 37° C. to 70-80% confluence were exposed to AngII (Sigma, St. Louis, Mo.) or H2O2 (Sigma) in serum free culture medium (SFM) for a total of 48 h in triplicate in 24 well plates. Experiments were repeated three times. […]

[3] = system: cardiac Na+ channel current; test: Whole-cell patch-clamp Na+ current in H9c2 cells; assay type: cell-based, rat; conditions: H9c2, 20 μM H2O2 for 48 h, voltage step to −10 mV
Protocol: Three hours prior to the start of the patch-clamp experiments, H9c2 cells were trypsinized and plated on treated plastic coverslips. H9c2 cells were treated with or without H2O2 as indicated. Glass pipettes were pulled on a Sutter Model P-97 horizontal puller to a resistance of 0.5 to 1.5 MΩ. The glass pipettes were filled with a solution of (in mM) CsCl 60, Cesium Aspartate 80, EGTA sodium 11, HEPES 10, Na2ATP 5 and pH 7.2 with CsOH. The bath solution consisted of (in mM) Na 30, […] chloride 100, CsCl 5, CaCl2 2, MgCl2 1.2, HEPES 10, Glucose 5 and pH 7.4 with NaOH. Once a seal was established, a small amount of suction was applied to obtain the whole cell configuration. From a holding potential of −100 mV, peak currents obtained at −10 mV were used for comparison. Cells were tested at 25° C. Data were sampled at 10 kHz and later filtered at 5 kHz for analysis. Currents were recorded and analyzed with an Axopatch 200B amplifier, Axon Digidata 1230A A/D converter and pClamp software (Molecular Devices Corporation, Sunnyvale, Calif.).

[4] = system: cardiac sodium channel (scn5a) mRNA; test: scn5a mRNA abundance by quantitative real-time RT-PCR in neonatal cardiomyocytes; assay type: cell-based, rat
Description: (§1) The rat embryonic cardiomyocyte cell line, H9c2 (ATCC cat #CRL-1446), or acutely isolated neonatal rat heart cardiomyocytes were used. Rat neonatal ventricular cells were isolated from 3-day-old Sprague-Dawley rats (Charles River Laboratories Wilmington, Mass.) using a kit and following the manufacturer's instructions (Worthington Biochemical Corp. Lakewood, N.J.). Cells cultured in Dulbecco's modified Eagle's medium (DMEM; ATCC, Manassas, Va.) with 10% fetal calf serum (ATCC) under standard tissue culture conditions at 37° C. to 70-80% confluence were exposed to AngII (Sigma, St. Louis, Mo.) or H2O2 (Sigma) in serum free culture medium (SFM) for a total of 48 h in triplicate in 24 well plates. Experiments were repeated three times. After dissociation with 0.125% trypsin-EDTA, 20 μL of 0.4% Trypan-blue (Sigma, St. Louis, Mo.) was added to each well, and a Trypan-blue exclusion viability assay was performed. The use of rats conforms with the Guide for the Care and Use of Laboratory Animals published by the US National Institutes of Health (NIH Publication No. 85-23, revised 1996).
(§2) To determine the abundance of cardiac sodium channel (scn5a) mRNA under the various conditions, quantitative real-time RT-PCR was used. […] PCR products were analyzed by relative standard curve methods β-Actin was used as a reference when making quantitative comparison.

[5] = system: cardiac sodium channel (scn5a) mRNA; test: scn5a mRNA abundance by quantitative real-time RT-PCR in H9c2 cells; assay type: cell-based, rat
Description: as §1, §2

In the case of O=C(/C=C/c1ccc(O)c(O)c1)OCCc1ccccc1 [CAPE, caffeic acid phenethyl ester], the “effect of NF-κB inhibitor on binding of p50 and p65 to the channel promoter” value ([1]; H9c2, CAPE) was “could prevent biding of both subunits”, the “effect of NF-κB inhibitor on NF-κB binding to scn5a promoter probe” value [2] was “prevented binding in response to H2O2” and the “effect of NF-κB inhibitor on NF-κB binding to scn5a promoter probe” value ([2]; listed as caffeic acid phenethyl ester) was “blocked”.
In the case of OO [H2O2], the “NF-κB subunit binding on the cardiac Na+ channel promoter” value ([1]; H9c2, AngII or H2O2 treatment) was “formation of the complete p50-p65 NF-κB heterodimer”, the “NF-κB binding activity to scn5a promoter probe” value ([2]; H9c2 nuclear extracts, 48 h AngII or H2O2) was “increased” and the “change in promoter activity of construct with mutated NF-κB binding site” value (scn5a promoter; APS3-NF-κBm, H9c2, AngII or H2O2) was “no significant change in activity”. For the same compound, the “depression of scn5a Na+ channel promoter activity” value (scn5a promoter; APS3 construct with intact NF-κB site, H9c2, 20 μM H2O2, 48 h) was 42.3%, the “cell death at 20 μM H2O2” value (H9c2 cardiomyocytes; 20 μM H2O2, 48 h) was “no statistically significant increase in cell death” and the “H2O2 concentration at which cell death starts” value (H9c2 cardiomyocytes; 48 h) was no less than 50 µM. The “decrease in peak Na+ current” value [3] was 46%, the “reduction in Na+ channel mRNA” value ([4]; isolated neonatal rat myocytes, 40 nM H2O2, 48 h) was 45.4% and the “reduction in Na+ channel mRNA” value ([5]; H9c2 cells, 20 μmol/L H2O2, 48 h) was 46.9%.
For catalase, the “effect of catalase on AngII-mediated downregulation of Na+ channel mRNA” value ([4]; neonatal cardiomyocytes, AngII 2 nM and PEG-catalase 250 U/mL, 48 h) was “prevented” and the “effect of catalase on AngII-mediated downregulation of Na+ channel mRNA” value ([5]; H9c2, AngII 100 nM and PEG-catalase 250 U/mL, 48 h) was “prevented”.
